Active and inactive are the calls of the source. No cut-off for these calls is given here.
How the values were obtained:
FaDu [1] = experiment: Cytotoxic activity against human FADU bulk cells incubated for 72 hrs by Cell-titer-Glo luminescence assay; format: functional, cell-based
A549 [2] = experiment: Cytotoxic activity against human A549 bulk cells incubated for 72 hrs by Cell-titer-Glo luminescence assay; format: functional, cell-based; conditions: A549, 72 h
ACHN [3] = experiment: Cytotoxic activity against human ACHN bulk cells incubated for 72 hrs by Cell-titer-Glo luminescence assay; format: functional, cell-based
FaDu [4] = experiment: Cytotoxic activity against human FADU cancer stem cells incubated for 72 hrs by Cell-titer-Glo luminescence assay; format: functional, cell-based
A549 [5] = experiment: Cytotoxic activity against human A549 cancer stem cells incubated for 72 hrs by Cell-titer-Glo luminescence assay; format: functional, cell-based; conditions: A549, 72 h
[6] = biological target: Serine/threonine-protein kinase RIO2 (Homo sapiens) (UniProt Q9BVS4); experiment: Inhibition of N-terminal GST-fused full length human recombinant RIOK2 expressed in baculovirus Sf21 cells assessed as reduction in kinase auto-phosphorylation at 1 uM in presence of ATP incubated for 1 hr by ELISA method
[7] = biological target: Serine/threonine-protein kinase RIO2 (Homo sapiens) (UniProt Q9BVS4); experiment: Inhibition of N-terminal GST-fused full length human recombinant RIOK2 expressed in baculovirus Sf21 cells assessed as reduction in kinase auto-phosphorylation at 10 uM in presence of ATP incubated for 1 hr by ELISA method
[8] = biological target: T1, Ribosomal protein S6 kinase (Homo sapiens) (UniProt P51812+Q9UBS0+O75676+Q15349+O75582+P23443+Q9UK32+Q15418); experiment: Inhibition of RPS6 kinase phosphorylation in cells (unknown origin) incubated for 6 hrs by Western blot based cell based method
ACHN [9] = experiment: Cytotoxic activity against human ACHN cancer stem cells incubated for 72 hrs by Cell-titer-Glo luminescence assay; format: functional, cell-based
[10] = biological target: AMP-activated protein kinase, AMPK (Homo sapiens) (UniProt P54646+O43741+P54619+Q9UGJ0+Q9Y478+Q13131+Q9UGI9); experiment: Inhibition of AMPK in human HeLa cells assessed as kinase phosphorylation level at 5 uM incubated for 6 hrs by SDS-PAGE based chemiluminescence assay; format: cell-based; parameters: scale not given: the % may be the effect or the level left
[11] = biological target: T1, Ribosomal protein S6 kinase (Homo sapiens); experiment: Inhibition of RPS6 kinase in human HeLa cells assessed as p-RPS6 Ser235/236 phosphorylation level at 5 uM incubated for 6 hrs by SDS-PAGE based chemiluminescence assay; format: cell-based; parameters: scale not given: the % may be the effect or the level left
[12] = biological target: T1, Ribosomal protein S6 kinase (Homo sapiens); experiment: Inhibition of RPS6 kinase in human HeLa cells assessed as p-RPS6 Ser240/244 phosphorylation level at 5 uM incubated for 6 hrs by SDS-PAGE based chemiluminescence assay; format: cell-based; parameters: scale not given: the % may be the effect or the level left
[13] = biological target: Mitogen-activated protein kinase; ERK1/ERK2 (Homo sapiens) (UniProt P27361+P28482); experiment: Inhibition of ERK phosphorylation in cells (unknown origin) incubated for 6 hrs by Western blot based cell based method
Chain of Mitogen-activated protein kinase; ERK1/ERK2 (Homo sapiens) (P27361 whole entry, looked up): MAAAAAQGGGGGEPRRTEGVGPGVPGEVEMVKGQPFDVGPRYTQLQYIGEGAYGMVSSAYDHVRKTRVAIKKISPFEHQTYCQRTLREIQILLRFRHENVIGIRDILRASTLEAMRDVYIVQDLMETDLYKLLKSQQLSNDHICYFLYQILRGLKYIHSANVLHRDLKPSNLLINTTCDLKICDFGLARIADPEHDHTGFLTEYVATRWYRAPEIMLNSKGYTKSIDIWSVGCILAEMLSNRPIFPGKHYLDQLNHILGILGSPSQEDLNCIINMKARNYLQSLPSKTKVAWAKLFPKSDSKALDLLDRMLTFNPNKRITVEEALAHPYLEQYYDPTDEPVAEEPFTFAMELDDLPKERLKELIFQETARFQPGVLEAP
Chain of Mitogen-activated protein kinase; ERK1/ERK2 (Homo sapiens) (P28482 whole entry, looked up): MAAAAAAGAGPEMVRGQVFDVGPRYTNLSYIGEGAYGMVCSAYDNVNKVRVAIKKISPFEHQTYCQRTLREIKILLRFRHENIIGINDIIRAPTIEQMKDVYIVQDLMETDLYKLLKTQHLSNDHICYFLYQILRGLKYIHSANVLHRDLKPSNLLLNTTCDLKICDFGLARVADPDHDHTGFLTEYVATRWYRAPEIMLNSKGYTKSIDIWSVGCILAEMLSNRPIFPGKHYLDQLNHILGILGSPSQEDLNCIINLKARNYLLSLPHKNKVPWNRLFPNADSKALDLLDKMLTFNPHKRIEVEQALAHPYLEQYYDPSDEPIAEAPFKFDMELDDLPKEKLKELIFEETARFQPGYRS

Chain of Serine/threonine-protein kinase RIO2 (Homo sapiens) (Q9BVS4 whole entry, looked up, the tested form may be a part): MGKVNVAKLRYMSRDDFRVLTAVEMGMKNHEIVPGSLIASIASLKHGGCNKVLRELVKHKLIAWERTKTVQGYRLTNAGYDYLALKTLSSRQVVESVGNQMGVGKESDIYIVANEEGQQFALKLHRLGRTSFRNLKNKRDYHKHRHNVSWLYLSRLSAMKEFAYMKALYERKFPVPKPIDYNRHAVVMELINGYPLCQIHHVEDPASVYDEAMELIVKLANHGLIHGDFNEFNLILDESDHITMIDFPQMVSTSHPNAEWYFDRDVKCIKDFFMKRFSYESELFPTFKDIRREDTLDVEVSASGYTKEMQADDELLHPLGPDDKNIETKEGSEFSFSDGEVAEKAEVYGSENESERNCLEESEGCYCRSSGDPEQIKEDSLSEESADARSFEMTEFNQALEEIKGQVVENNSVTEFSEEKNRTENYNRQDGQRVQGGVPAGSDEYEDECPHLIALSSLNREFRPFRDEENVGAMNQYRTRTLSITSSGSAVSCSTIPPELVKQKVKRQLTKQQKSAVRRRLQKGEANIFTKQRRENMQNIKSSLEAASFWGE

| Structure (SMILES) | inhibition [6] [%] | inhibition [7] [%] | other results |
| --- | --- | --- | --- |
| CCN(CC)CCNC(=O)c1c(C)[nH]c(/C=C2\C(=O)Nc3ccc(-c4cnn(-c5ccccc5)c4C)cc32)c1C | 55 | 76 | IC50 (FaDu [1]): 2840 nM; IC50 (A549 [2]): 29200 nM; IC50 (ACHN [3]): 3540 nM; IC50 (FaDu [4]): 1310 nM; IC50 (A549 [5]): 4900 nM |
| Cc1[nH]c(/C=C2\C(=O)Nc3ccc(-c4csc(-c5ccccc5)n4)cc32)c(C)c1C(=O)NCCO | – | – | inhibition [8]: Active |
| Cc1[nH]c(/C=C2\C(=O)Nc3ccc(-c4cnn(-c5ccccn5)c4)cc32)c(C)c1C(=O)NCCN1CCCC1 | 53 | 91 | IC50 (FaDu [1]): 2530 nM; IC50 (A549 [2]): 2530 nM; IC50 (ACHN [3]): 1640 nM; IC50 (FaDu [4]): 1650 nM; IC50 (A549 [5]): 11700 nM; IC50 (ACHN [9]): 220 nM; Activity [10]: 52%; Activity [11]: 82%; Activity [12]: 92% |
| CCN(CC)CCNC(=O)c1c(C)[nH]c(/C=C2\C(=O)Nc3ccc(-c4cnn(-c5ccccn5)c4)cc32)c1C | 36 | 86 | IC50 (FaDu [1]): 510 nM; IC50 (A549 [2]): 1720 nM; IC50 (ACHN [3]): 1240 nM; IC50 (FaDu [4]): 50 nM; IC50 (A549 [5]): 2530 nM; IC50 (ACHN [9]): 130 nM |
| CCNC(=O)c1c(C)[nH]c(/C=C2\C(=O)Nc3ccc(-c4csc(-c5ccccc5)n4)cc32)c1C | – | – | inhibition [13]: Active; inhibition [8]: Active |
| CCN(CC)CCNC(=O)c1c(C)[nH]c(/C=C2\C(=O)Nc3ccc(-c4cnn(C5CCOCC5)c4)cc32)c1C | 32 | 68 | IC50 (FaDu [1]): 4220 nM; IC50 (A549 [2]): 16000 nM; IC50 (ACHN [3]): 10400 nM; IC50 (FaDu [4]): 2570 nM |
| CCN(CC)CCNC(=O)c1c(C)[nH]c(/C=C2\C(=O)Nc3ccc(-c4ccnn4-c4ccccn4)cc32)c1C | 14 | 93 | – |
| Cc1[nH]c(/C=C2\C(=O)Nc3ccc(-c4cnn(-c5ccccc5)c4)cc32)c(C)c1C(=O)NC1CCNCC1 | 17 | 140 | – |
| CCN(CC)CCNC(=O)c1c(C)[nH]c(/C=C2\C(=O)Nc3ccc(-c4ccnn4-c4ccc(F)cc4)cc32)c1C | 39 | 104 | – |
| CCN(CC)CCNC(=O)c1c(C)[nH]c(/C=C2\C(=O)Nc3ccc(-c4ccnn4-c4ccc(Cl)c(Cl)c4)cc32)c1C | 18 | 87 | – |
| CCN(CC)CCNC(=O)c1c(C)[nH]c(/C=C2\C(=O)Nc3ccc(-c4ncc(-c5ccccc5)o4)cc32)c1C | 32 | 56 | IC50 (FaDu [1]): 7350 nM; IC50 (FaDu [4]): 27600 nM; IC50 (A549 [5]): 350 nM |
| CCN(CC)CCNC(=O)c1c(C)[nH]c(/C=C2\C(=O)Nc3ccc(-c4ccnn4-c4ccncc4)cc32)c1C | -6 | 44 | – |
| Cc1cc(C)c(/C=C2\C(=O)Nc3ccc(-c4ccc(C=O)cc4)cc32)[nH]1 | – | – | inhibition [13]: Active; IC50 (FaDu [1]): 26800 nM; IC50 (A549 [2]): 29200 nM |
| CCN(CC)CCN(C)C(=O)c1c(C)[nH]c(/C=C2\C(=O)Nc3ccc(-c4cnn(-c5ccccc5)c4)cc32)c1C | 3 | 113 | – |
| CCN(CC)CCNC(=O)c1c(C)[nH]c(/C=C2\C(=O)Nc3ccc(-c4cnn(-c5ccc(S(N)(=O)=O)cc5)c4)cc32)c1C | 26 | 71 | – |
| CCOC(=O)CCc1ccc(-c2nc(-c3ccc4c(c3)/C(=C/c3[nH]c(C)c(C(=O)NCCN(CC)CC)c3C)C(=O)N4)cs2)cc1 | – | – | inhibition [13]: Active; IC50 (FaDu [4]): 2520 nM |
| Cc1[nH]c(/C=C2\C(=O)Nc3ccc(-c4cnn(-c5ccccc5)c4)cc32)c(C)c1C(=O)NCCc1ncc[nH]1 | -2 | 25 | – |

| Structure (SMILES) | inhibition [6] [%] | inhibition [7] [%] | other results |
| --- | --- | --- | --- |
| CCN(CC)CCNC(=O)c1c(C)[nH]c(/C=C2\C(=O)Nc3ccc(-c4ccnn4-c4ccc(C(F)(F)F)cc4)cc32)c1C | 9 | 68 | – |
| CCN(CC)CCNC(=O)c1c(C)[nH]c(/C=C2\C(=O)Nc3ccc(-c4cnn(-c5ccccc5)c4)cc32)c1C | 45 | 94 | IC50 (FaDu [1]): 6250 nM; IC50 (A549 [2]): 5350 nM; IC50 (ACHN [3]): 2280 nM; IC50 (FaDu [4]): 600 nM; IC50 (A549 [5]): 4830 nM |
| CCN(CC)CCNC(=O)c1c(C)[nH]c(/C=C2\C(=O)Nc3ccc(-c4ccnn4-c4ccccc4F)cc32)c1C | 56 | 116 | – |
| Cc1[nH]c(/C=C2\C(=O)Nc3ccc(-c4cnn(-c5ccccc5)c4)cc32)c(C)c1C(=O)NC[C@@H]1CCCN1 | 13 | 94 | – |
| CCN(CC)CCCNC(=O)c1c(C)[nH]c(/C=C2\C(=O)Nc3ccc(-c4cnn(-c5ccccc5)c4)cc32)c1C | 20 | 96 | – |
| CCN(CC)CCNC(=O)c1c(C)[nH]c(/C=C2\C(=O)Nc3ccc(-c4cnn(-c5nccs5)c4)cc32)c1C | 18 | 111 | – |
| Cc1[nH]c(/C=C2\C(=O)Nc3ccc(-c4cnn(-c5ccccc5)c4)cc32)c(C)c1C(=O)NCC1(N)CCCC1 | 7 | 65 | – |
| CCN(CC)CCNC(=O)c1c(C)[nH]c(/C=C2\C(=O)Nc3ccc(-c4ccnn4-c4ccccc4)cc32)c1C | 55 | 100 | IC50 (FaDu [1]): 3010 nM; IC50 (A549 [2]): 2940 nM; IC50 (ACHN [3]): 6570 nM; IC50 (FaDu [4]): 3460 nM; IC50 (A549 [5]): 5540 nM; IC50 (ACHN [9]): 1170 nM |
| CCN(CC)CCNC(=O)c1c(C)[nH]c(/C=C2\C(=O)Nc3ccc(-c4cnn(-c5cccnc5)c4)cc32)c1C | 42 | 82 | – |
| Cc1[nH]c(/C=C2\C(=O)Nc3ccc(-c4cnn(-c5ccccc5)c4)cc32)c(C)c1C(=O)NC1(CN2CCCCC2)CC1 | 6 | 107 | – |
| CCN(CC)CCNC(=O)c1c(C)[nH]c(/C=C2\C(=O)Nc3ccc(-c4cnn(-c5cscn5)c4)cc32)c1C | 41 | 99 | – |
| CCN(CC)CCNC(=O)c1c(C)[nH]c(/C=C2\C(=O)Nc3ccc(-c4cnn(-c5ncccn5)c4)cc32)c1C | 42 | 112 | – |
| CCN(CC)CCNC(=O)c1c(C)[nH]c(/C=C2\C(=O)Nc3ccc(-c4ccnn4-c4ccc(OC)cc4)cc32)c1C | 34 | 106 | – |
| CCN(CC)CCNC(=O)c1c(C)[nH]c(/C=C2\C(=O)Nc3ccc(-c4cnn(-c5cnccn5)c4)cc32)c1C | 47 | 95 | – |
| CCOCCCNC(=O)c1c(C)[nH]c(/C=C2\C(=O)Nc3ccc(-c4cnn(-c5ccccc5)c4)cc32)c1C | -7 | 43 | – |
| Cc1[nH]c(/C=C2\C(=O)Nc3ccc(-c4cnn(-c5ccccc5)c4)cc32)c(C)c1C(=O)N[C@H]1[C@@H]2CNC[C@@H]21 | 22 | 134 | – |

From ChEMBL document CHEMBL3727348, “3-(aryl or heteroaryl) methyleneindolin-2-one derivatives as inhibitors of cancer stem cell pathway kinases for the treatment of cancer” (2014)
